“Also recorded” adds a separate entry of the source.
Experiments:
[1] = 14-day continuous intravenous infusion toxicity study in the rat; type: in vivo, Sprague Dawley rats
R1 mRNA [2] = assay: R1 mRNA levels in HT-29 colon tumors in nude mice (Northern blot); type: in vivo, human; settings: day 16, 10 mg/kg every other day, two independent HT-29 tumors
Description: Effects of SEQ ID NO:1 administration on R1 mRNA levels in HT-29 colon tumors in nude mice were investigated.
(§1) For determination of mRNA levels in tumors by Northern Blot, total RNA was prepared from excised tumors using TRIzol reagent (GIBCO BRL). Northern blot analysis was performed as previously described (Hurta and Wright, 1995). RNA was subjected to electrophoresis through 1% formaldehyde agarose gels followed by transfer to nylon membranes. Blots were hybridized in the presence of a R1 fragment (McClarty et al, 1987). Glyceraldehyde-3-phosphate dehydrogenase (GAPDH) mRNA levels were simultaneously probed for RNA loading controls.
The results provide strong evidence that SEQ ID NO:1 is reaching the tumor site in vivo and is acting by an antisense mechanism of action.

R1 mRNA [3] = assay: Northern blot of R1 mRNA in HT-29 cells; type: cell-based, human; settings: 0.2 μM, four hours with Lipofectin, 16 hours recovery
Description: as §1, with “Total” for “For determination of mRNA levels in tumors by Northern Blot, total”, “isolated” for “prepared from excised tumors”, “BRL) after cells were treated with 0.2 μM SEQ ID NO:1 for four hours in the presence of cationic lipid (Lipofectin reagent, GIBCO BRL), washed with PBS, and incubated for 16 hours to recover in normal medium containing 10% FBS.” for “BRL).”

R1 protein = assay: Immunoprecipitation of newly synthesized R1 protein in AsPC-1 cells; type: cell-based, human; settings: 0.2 μM, 4 hours
Description: Immunoprecipitation was performed using a saturating amount of AD203 anti-R1 monoclonal antibody as previously described (Choy et al., 1988). Human tumor cells, AsPC-1 (pancreatic adenocarcinoma), were exposed for 4 hours to SEQ ID NO:1, SEQ ID NO:1 M is (a SEQ ID NO:1 sequence containing four base mismatch) or SEQ ID NO:1 Scr (a sequence with the same ratio of ACTG as the SEQ ID NO:1 sequence but scrambled). Cells were then washed and labeled with ^35S-methionine for 4-7 hours. R1 protein was specifically immunoprecipitated with R1 antibody from cell lysate, resolved on sodium dodecyl sulfate-polyacrylamide gels and analyzed by autoradiography.

[4] = tested on: C8161 human metastatic melanoma cells; assay: Experimental metastasis of C8161 cells, in vivo treatment (lung nodules, SCID mice); settings: 10 mg/kg/48 hr from day 2, 5-7 weeks
Description: B. C8161 human metastatic melanoma cells were seeded into 100 mm tissue culture dishes at a density of 2×10^6 and incubated overnight at 37° C. in α-MBM medium supplemented with 10% FBS. The cells were trypsinized, collected by centrifugation and aliquots were removed from the suspension to determine the cell viability using trypan blue exclusion test. Approximately, 1×10^5 cells suspended in 0.1 ml of PBS were injected into the tail veins of 6-8 week old female SCID mice. Treatment with saline or 10 mg/kg/48 hr SEQ ID NO:1 or SEQ ID NO:1-SCR (scrambled control) was initiated after 2 days. Estimates of the number of lung nodules were made 5-7 weeks later, after excised lungs from individual mice were stained with picric acid dye solution (75% picric acid, 20% formaldehyde, 5% glacial acetic acid), see FIG. 12B. The bars represent the mean number of nodules per mouse with standard error.

LS513 cells = assay: LS513 multi-drug resistant colon adenocarcinoma growth in SCID mice; type: in vivo, human
Description: LS513 cells (1×10^7 cells in 100 μl of PBS) were subcutaneously injected into the right flank of 6-7 weeks old female SCID mice. After the size of tumor reached an approximate volume of 100 mm^3, 8 days post tumor cell injection, SEQ ID NO:1 was administered by bolus infusion into the tail vein every other day at 10 mg/kg. Control animals received saline alone for the same period. Antitumor effect of SEQ ID NO:1 was further compared to that of CPT-11. CPT-11 was administered i.p. for 5 days at a dose of 20 mg/kg/day. Antitumor activities were estimated by the inhibition of tumor volume, which was measured with calipers. Each point represents mean tumor volume calculated from 10 animals per experimental group (FIG. 16A). Tumor weights were measured after animals were sacrificed at the end of the treatment (FIGS. 16B and 16C). These cells are not resistant to CPT-11, which was used as a positive control.

[5] = tested on: CB7 Friend retrovirus-induced mouse Erytheroleukemia cells; assay: Survival of SCID mice bearing mouse erythroleukemia (CB7); type: in vivo; settings: 10 mg/kg i.v. every second day, stopped at day 71; one mouse died at day 30 and another at day 54; untreated died within 36 days
Description: In vivo studies were conducted to assess the therapeutic potential of SEQ ID NO:1 in the treatment of mouse Erythroleukemia. CB7 Friend retrovirus-induced mouse Erytheroleukemia cells (5×10^6) collected from subconfluent logarithmically growing cultures were injected i.v. via the tail vein of each animal and disease was allowed to establish for 2 days. SEQ ID NO:1 in normal saline was administered by tail vein injections every second day at a dose of 10 mg/kg. Control animals received saline alone, without oligonucleotide. Treatment with SEQ ID NO:1 was stopped at day 71. Antitumor effects of SEQ ID NO:1 treatment were assessed by the examination of survival of mice (FIG. 19). All mice died as a consequence of tumor progression within 36 days when left untreated. All SEQ ID NO:1 treated animals, on the other hand, survived beyond day 71 except one mouse which died at day 30 and another at day 54.

[6] = cynomolgus monkey, in vivo
[7] = monkey, in vivo
[8] = Repeat dose 21-day toxicity study in monkeys (Part 2); settings: monkey; 21-day infusion, 50 mg/kg/day

For “5′-CTCTAGCGTCTTAAAGCCGA-3′ (CTCTAGCGTCTTAAAGCCGA; chemistry not given here) [SEQ ID NO:1]”, the “sex effect on adverse effects” value [1] was “more pronounced in males than females”, the “treatment-related effects in the high dose group” value ([1]; 50 mg/kg/day (reduced to 40 mg/kg/day), 14-day infusion) was “severe adverse clinical signs and mortality; also recorded: high morbidity and mortality, reduced body weights and reduced food consumption” and the clinical pathology results ([1]; 2, 10, 50 mg/kg/day, 14 days) was “dose-dependent anemia, thrombocytopenia, coagulopathic selectivity for APTT, and liver and kidney toxicity in both sexes”. For the same substance, the pathological findings ([1]; 2, 10, 50 mg/kg/day, 14 days) was “major treatment-related changes in numerous tissues and organs of the high dose animals, in most tissues and organs of the mid dose animals; and sporadically in the evaluated tissues and organs of the low dose animals”, the toxicity ([1]; continuously for 14 days at 10 mg/kg/day (59 mg/m^2/day)) was “Severe toxicity” and the “R1 mRNA levels in tumors” value (R1 mRNA [2]) was “marked reduction; also recorded: decreased R1 mRNA levels”. The “R1 mRNA level” value (R1 mRNA [3]) was “specifically decreases R1 mRNA; also recorded: significant decrease; also recorded: decreased R1 mRNA levels”, the “R1 protein expression (synthesis)” value (R1 protein) was “specifically decreases R1 protein expression; also recorded: dramatically decreased; also recorded: specifically inhibit the expression of R1 protein” and the “number of lung nodules” value [4] was “no visible lung nodules”. The “efficacy compared with CPT-11” value (LS513 cells; CPT-11 20 mg/kg/day i.p. for 5 days) was “more effective than CPT-11”, the “tumor growth (volume, weight)” value (LS513 cells; SCID mice, 10 mg/kg i.v. every other day, vs saline) was “significant delay of tumor growth” and the survival of mice [5] was > 71 days. For the same substance, the “Cmax and AUC estimates versus dose” value [6] was “proportional with the administered dose”, the “mean Cl, high dose group compared to low dose group” value [6] was “slightly increased mean Cl value” and the “mean elimination t1/2, high dose group compared to low dose group” value [6] was “significantly larger mean elimination t1/2”. The “sex differences in pharmacokinetics” value [6] was “no clear observed sex differences”, the “levels in the brain” value [7] was “very low or below the limits of detection” and the “tissue concentrations, rank order” value [7] was “kidney>liver>spleen>lymph node (monkey)>lung (monkey)>heart”. The “tissue levels upon discontinuation of treatment” value [7] was “decreased over time” and the mortality [8] was “one high dose animal was sacrificed on Day 19 for ethical reasons”.
